Reference: US12416008B2, “Compositions and methods of use for small-molecule regulation of CRISPR-Cas9 activity using RNA aptamers” (priority 2019, dated 2025)
Marks after values point to notes of the source that are not given here.

B1: agRNAs created by Liu et al.: agRNAs created by Liu et al., designed to regulate gene expression via CRISPRi; SEQ ID NO: 74 (nucleic acid)
guide: ATGATAAAGCTGCTGCAATAGTTTTAGAGCTAGAAATAGCAAGTTAAAATAAGGCTAGTCCGTTATCAACTTGAAAAAGTGGCACCGAGTCGGTGCCAGCAGCTTTATCATATACCACGCGAAAGCGCCTTGGCAGATGATAAAGTTTTTTT

Tests used:
galK 1 site = assay: red/white colony screen of editing efficiency at the galK 1 site (CREATE recombineering); format: cell-based, E. coli MG1655; conditions: for Editing Efficiency 1 mM Theo: induced for 3 hours with 1 mM theophylline; for Editing Efficiency no Theo: no theophylline, 3 hours recovery
Protocol: Candidates from this enriched library were analyzed to inform an improved library design. After three selection/counterselection steps, cells were plated on M63 selection medium^20 and 150 colonies were picked. Each isolated candidate was then transformed into unedited E. coli to screen for theophylline-responsive constructs using a red/white colony assay to quantify the percentage of edited bacteria. Colonies with an unedited galK site appear red whereas edited colonies appear white (FIG. 5). The percentage of white colonies is considered the editing efficiency. Gene editing was induced as previously described with or without adding theophylline and the editing efficiencies were compared.
The protocol established by Garst et al was mainly followed. LB containing kanamycin and chloramphenicol was inoculated with MGλ9 cells and grown overnight at 30° C. The stationary culture was diluted 100 fold in LB, containing chloramphenicol, kanamycin and 0.2% arabinose and grown to an OD600=0.4-0.6 in 25 mL LB. The culture was heat-shocked in a shaking waterbath at 42° C. for 15 minutes to induce expression of the lambda-red proteins from pSIM5. Then, the culture was washed in two volumes of ice-cold deionized water, resuspended in 500 μl deionized water and 50 μl of the cell suspension was electroporated with 200 ng of a CREATE plasmid that encodes gRNA and homology template. The transformants were recovered in 4 mL of LB, containing 0.2% arabinose and optionally 1 mM theophylline or 1 μM anhydrotetracycline (ATC), and shaken at 37° C. for 3 hours before plating on MacConkey Agar. To estimate the number of cfu, aliquots were plated on LB agar 1 hour after transformation.
In order to assess the frequency of gene editing, a red/white screen was used to visualize the introduction of a stop codon into the galK gene by CREATE. The original CREATE protocol was used for inducing gene editing and after 3 hours of recovery (with or without the agRNA ligand) a series of dilutions of the cultures were plated on MacConkey Agar plates containing 1% galactose. Bacterial colonies with a mutated galK* site appear white on the plates, whereas non-edited colonies appear red. The editing efficiency could be calculated by dividing the number of edited colonies over the total number of colonies. By comparing the editing efficiency in presence versus absence of the ligand, a dynamic range of the in vivo activity could be determined.
When screening the enriched libraries for switchable constructs, the transformants were recovered in 4 mL of LB broth, a dilution series was plated for every construct and the experiment was only carried out once due to the large volume of colonies screened (˜250 in total). When the constructs A9 and GU19 were characterized in detail, triplica of the experiment were carried out.

[1] = molecular target: T1, Streptococcus pyogenes Cas9 (Streptococcus pyogenes serotype M1, UniProt Q99ZW2); assay: electrophoretic mobility shift assay (EMSA) of Cas9 binding to gRNAs; conditions: presence or absence of 250 μM theophylline
T1 construct: host or cells: E. coli BL21 (DE3) Rosetta
T1 sequence (Q99ZW2 whole entry): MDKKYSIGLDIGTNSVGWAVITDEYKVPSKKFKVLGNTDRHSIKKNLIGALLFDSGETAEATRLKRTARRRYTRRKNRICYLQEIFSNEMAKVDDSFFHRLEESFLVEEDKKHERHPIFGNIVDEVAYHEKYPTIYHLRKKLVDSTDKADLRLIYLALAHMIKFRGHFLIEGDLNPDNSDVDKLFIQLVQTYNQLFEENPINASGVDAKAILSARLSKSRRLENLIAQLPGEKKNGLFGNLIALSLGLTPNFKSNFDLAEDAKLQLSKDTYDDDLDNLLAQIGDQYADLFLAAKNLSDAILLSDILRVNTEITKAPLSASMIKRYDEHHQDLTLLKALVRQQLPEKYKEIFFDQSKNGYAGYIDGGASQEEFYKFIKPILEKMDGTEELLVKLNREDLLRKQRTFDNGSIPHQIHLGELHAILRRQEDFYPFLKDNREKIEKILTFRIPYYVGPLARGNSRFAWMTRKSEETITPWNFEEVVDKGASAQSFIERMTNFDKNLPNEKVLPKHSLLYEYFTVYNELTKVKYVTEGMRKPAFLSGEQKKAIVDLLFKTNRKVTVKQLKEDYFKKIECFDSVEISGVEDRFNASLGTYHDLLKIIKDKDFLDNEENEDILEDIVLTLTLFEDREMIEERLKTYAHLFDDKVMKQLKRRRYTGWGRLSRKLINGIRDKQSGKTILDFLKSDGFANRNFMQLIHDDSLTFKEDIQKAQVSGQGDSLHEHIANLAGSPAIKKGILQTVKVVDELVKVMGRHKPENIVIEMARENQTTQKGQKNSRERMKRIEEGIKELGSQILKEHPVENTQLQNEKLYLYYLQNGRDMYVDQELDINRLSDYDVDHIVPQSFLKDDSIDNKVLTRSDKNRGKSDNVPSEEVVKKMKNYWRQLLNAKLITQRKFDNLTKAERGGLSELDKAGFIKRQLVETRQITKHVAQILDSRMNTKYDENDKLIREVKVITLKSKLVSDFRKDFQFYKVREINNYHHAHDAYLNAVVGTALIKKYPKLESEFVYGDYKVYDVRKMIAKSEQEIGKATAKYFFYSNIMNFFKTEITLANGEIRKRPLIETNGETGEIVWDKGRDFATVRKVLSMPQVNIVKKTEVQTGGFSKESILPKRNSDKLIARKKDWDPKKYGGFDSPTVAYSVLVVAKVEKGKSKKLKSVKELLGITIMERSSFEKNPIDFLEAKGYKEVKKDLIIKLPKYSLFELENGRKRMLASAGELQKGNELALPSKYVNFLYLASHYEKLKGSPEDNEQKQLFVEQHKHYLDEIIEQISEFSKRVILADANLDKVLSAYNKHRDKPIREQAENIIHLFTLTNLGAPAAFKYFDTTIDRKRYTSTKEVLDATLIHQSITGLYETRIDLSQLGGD

galK1 site = assay: co-transformation of targeting gRNA plasmid with non-targeting gRNA plasmid (simulated library)
[2] = 9:1 targeting:non-targeting mixture

Row | Molecule | Editing Efficiency 1 mM Theo (galK 1 site) | Editing Efficiency no Theo (galK 1 site) | further results
1 | A1: agRNA cassette GGGGGGCCTATTTT, SEQ ID NO: 8 (expressed or natural sequence) | 66% | 0% | apparent binding affinity to the Cas9 protein [1]: the same apparent binding affinity to the Cas9 protein as the wild type gRNA, independent of theophylline
2 | GU12: agRNA cassette GCCGGGCCTTTTTT, SEQ ID NO: 44 (expressed or natural sequence) | 7% | 0% | –
3 | GC11: agRNA cassette GCGTGGCCCTTCCC, SEQ ID NO: 62 (chemistry not given here) | 3% | 0% | –
4 | sgRNA: wild-type single guide RNA; cassette AGAGCTAGCAAGTT, SEQ ID NO: 1 (chemistry not given here) | 89%** | 85%** | plated bacteria carrying the non-targeting plasmid (galK1 site; [2]): 84.8%; plated bacteria expected to carry the targeting CREATE plasmid (galK1 site; [2]): 15.2%; # of unedited colonies carrying non-targeting gRNA plasmid (galK1 site; 16 unedited colonies picked, 20 ng non-targeting + 180 ng targeting plasmid, 1 mM theophylline): 16/16; enrichment of the non-targeting plasmids (galK1 site; listed as wild type gRNA): 8.6±0.1 fold; enrichment of the non-targeting plasmids (galK1 site; listed as wt sgRNA): ~8.5 fold; percentage of edited cells (galK1 site; plasmid mixture 90% targeting galK1, 10% non-targeting (eGFP) gRNA, listed as wild type gRNA): 14%; percentage of edited cells (galK1 site; plasmid mixture 90% targeting galK1, 10% non-targeting (eGFP) gRNA, listed as wt sgRNA): 13.5%; percentage of edited cells (galK1 site; transformed exclusively with the targeting plasmid, listed as wild type gRNA): 89%; percentage of edited cells (galK1 site; transformed exclusively with the targeting plasmid, listed as wt sgRNA): 88.9%
5 | A8: agRNA cassette CGGGGGACAATAGG, SEQ ID NO: 12 (expressed or natural sequence) | 82% | 2% | –
6 | AU10: agRNA cassette ATAGGGCCATCCAT, SEQ ID NO: 24 (expressed or natural sequence) | 13% | 0% | –
7 | AU14: agRNA cassette AGTGGGCCAGCCTT, SEQ ID NO: 27 (expressed or natural sequence) | 17% | 0% | –
8 | AU3: agRNA cassette ACAAGGCCCATAAT, SEQ ID NO: 17 (expressed or natural sequence) | 72% | 1% | –
9 | AU15: agRNA cassette ACCCGGCCATTCAT, SEQ ID NO: 28 (expressed or natural sequence) | 5% | 0% | –
10 | AU7: agRNA cassette AGTAGGCCTTTCAT, SEQ ID NO: 21 (expressed or natural sequence) | 58% | 0% | –
11 | GC16: agRNA cassette GATAGGCCAACACC, SEQ ID NO: 66 (expressed or natural sequence) | 65% | 1% | –
12 | AU16: agRNA cassette AACCGGCCCCGAGT, SEQ ID NO: 29 (expressed or natural sequence) | 6% | 0% | –
13 | AU1: agRNA cassette AGGGGGCCTATAAT, SEQ ID NO: 15 (expressed or natural sequence) | 2% | 0% | –
14 | GU8: agRNA cassette GGCAGGCCTCTTCT, SEQ ID NO: 40 (expressed or natural sequence) | 1% | 0% | –
15 | GC1: agRNA cassette GCTGGGCCCTTCCC, SEQ ID NO: 52 (expressed or natural sequence) | 0% | 0% | –
16 | GC5: agRNA cassette GTTGGGCCGCGGAC, SEQ ID NO: 56 (expressed or natural sequence) | 0% | 0% | –
17 | GU11: agRNA cassette GTATGGCCTCGGAT, SEQ ID NO: 43 (expressed or natural sequence) | 0% | 0% | –
18 | AU17: agRNA cassette AAAGGGCCAGGCAT, SEQ ID NO: 30 (expressed or natural sequence) | 4% | 0% | –
19 | C2A2: agRNA cassette TAGTGGCTACCATG, SEQ ID NO: 14 (expressed or natural sequence) | 84% | 5% | –
20 | GC17: agRNA cassette GACCGGCCCCCCGC, SEQ ID NO: 67 (expressed or natural sequence) | 2% | 0% | –
21 | GC9: agRNA cassette GCAGGGCCTCTAAC, SEQ ID NO: 60 (expressed or natural sequence) | 0% | 0% | –
22 | GU17: agRNA cassette GTAAGGCCGCCGAT, SEQ ID NO: 49 (expressed or natural sequence) | 0% | 0% | –
23 | B1 | – | – | gene editing activity and ligand dependence (in words) (galK 1 site; with and without aptamer ligand): lead to gene editing with and without the aptamer-ligand
